Test results reported in US20190040025A1, “INDOLEAMINE 2,3-DIOXYGENASE INHIBITOR, PREPARATION METHOD THEREFOR, AND APPLICATION” (Jiangsu Hansoh Pharmaceutical Group Co., Ltd., priority 2016, published 2019).

Tests used:
[1] = molecular target: T1, Human indoleamine 2,3-dioxygenase (IDO) (Homo sapiens, UniProt P14902); test: Enzymatic test for IDO activity inhibition; assay type: biochemical; conditions: 40 nM IDO enzyme, 0.2 mM L-tryptophan, 60 minutes at 30° C.
T1 construct: purchased BPS Bioscience Inc
T1 sequence (P14902 whole entry): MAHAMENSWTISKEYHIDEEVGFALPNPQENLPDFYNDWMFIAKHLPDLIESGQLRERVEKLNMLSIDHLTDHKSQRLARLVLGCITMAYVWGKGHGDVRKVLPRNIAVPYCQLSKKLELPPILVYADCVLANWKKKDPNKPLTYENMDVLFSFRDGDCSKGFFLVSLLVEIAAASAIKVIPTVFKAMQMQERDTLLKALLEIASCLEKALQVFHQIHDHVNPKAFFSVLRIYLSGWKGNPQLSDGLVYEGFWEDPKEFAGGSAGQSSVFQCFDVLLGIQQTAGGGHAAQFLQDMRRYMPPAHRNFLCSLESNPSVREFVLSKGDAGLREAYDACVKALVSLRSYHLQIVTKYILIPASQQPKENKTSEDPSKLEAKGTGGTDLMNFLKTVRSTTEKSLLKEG
Protocol: Human indoleamine 2,3-dioxygenase (IDO) was purchased from BPS Bioscience Inc. The enzymatic reaction of idoleamine 2,3-dioxygenase (IDO) was performed in a 96-well plate with a reaction volume of 20 μL. The reaction conditions were: 40 nM IDO enzyme, 0.2 mM L-tryptophan, 50 mM KPB (pH 6.5) buffer, 20 mM sodium L-L-ascorbate, 10 μM methylene blue, 0.2 mg/mL catalase, different concentrations of compounds containing <1% dimethyl sulfoxide. After reacting for 60 minutes at 30° C., 5 μL of 30% (w/v) trichloroacetic acid (in 50 mM KPB buffer) weres added to each well. The plate was incubated for 30 minutes at 50° C. to hydrolyze N-formyl-kynurenine to kynurenine. 25 μL of 2% (w/v) p-(dimethylamino)benzaldehyde (p-DMBA)/glacial acetic acid solution were added to each well. The absorbance at 490 nm was read on a BioTek Synergy H1 microplate reader […].
The stock solution of the test compound was prepared to 10 mM with dimethyl sulfoxide, diluted with dimethyl sulfoxide to the highest concentration of the test during the experiment, then diluted in 1:3 gradient, and generally diluted to 8 to 10 concentration points. Duplicate wells were set for each concentration point, and one reference compound was included in each experiment. The original data of the absorbance at 490 nm read on a microplate reader were analyzed. The inhibition of IDO enzyme activity was calculated at different concentrations of the test compound. The half-inhibitory concentration IC50 value of the compound was obtained by non-linear fitting analysis of inhibition percentage data by GraphPad Prism software.

[2] = Pharmacokinetic (PK) analysis of rat plasma; assay type: in vivo; conditions: Sprague-Dawley, po, 20 mg/kg, SD rats, single gavage, 20 mg/10 mL/kg
Protocol: The pharmacokinetics test of the test compound was performed with Sprague Dawley (SD) rats (Shanghai Slac Laboratory Animal Co., LTD).
Mode of administration: Single gavage.
U Dosage: 20 mg/10 mL/kg.
Formulation prescription: 3% dimethylacetamide and 20% hydroxypropyl-3-cyclodextrin.
Sampling points: before administration and 15 minutes, 0.5, 1, 2, 4, 6, 8 and 24 hours after administration.
Plasma sampling and sample processing: • 1) 0.2 ml of intravenous blood was collected and placed in an EDTA-2K tube. The blood was centrifuged at 4° C. for 5 minutes at 6,000 rpm to separate the plasma, which was stored at −80° C. • 2) 160 μL of acetonitrile were added to 40 μL of plasma sample, standard, and internal reference. The mixture was shaken vertically for 3 minutes, and centrifuged at 4000 rpm for 10 minutes. 100 μL of the supernatant were taken, and then added with 100 μL of deionized water and mixed well. 100 μL of the resulting solution was taken for LC/MS/MS analysis. The instrument for plasma LC/MS/MS analysis was AB Sciex API 4000.
Liquid Chromatography Analysis: • Liquid chromatography conditions: Shimadzu LC-20AD pump • Chromatographic column: phenomenex Gemiu 5 μm C18 50×4.6 mm • Mobile phase: solution A was 0.1% formic acid solution, and solution B was acetonitrile • Flow rate: 0.8 mL/min • Elution time: 0-3.01 minutes and the eluent was as follows:
• Mass spectrometry analysis: setup conditions of mass spectrometer: positive ion electrospray ionization (ESI) mode. • Experimental results: the main parameters of pharmacokinetics were calculated by WinNonlin 6.1 and the experimental results are shown in the following table: […]

[3] = test system: mouse rectal cancer cell line Colon26; test: Anti-tumor effect in Colon26 tumor-bearing mouse model; assay type: in vivo, mouse (Balb/c); conditions: Colon26 tumor-bearing mice
Text: The present invention further used the Colon26 tumor-bearing mouse model to test the anti-tumor effect of the example compounds. The Colon26 tumor-bearing mouse model was the mouse rectal cancer cell line Colon26 purchased from Guangzhou Ginio Biological Technology Co., Ltd., and the culture medium used was RPMI1640 containing 10% fetal bovine serum. The mouse strain used for tumor-bearing was Balb/c purchased from Sino-British SIPPR/BK Lab Animal Co., Ltd. At the time of implanting, the Colon26 cells in logarithmic growth phase were collected and mixed to 10 million cells/ml. Each mouse was implanted subcutaneously with 100 μl of one million cells. When the tumor grew to about 100 cubic millimeters, animals were randomly divided into groups with 8 animals per group. Drug administration was started (D0).
Mode of administration: intragastric administration, twice a day.
Formulation prescription: 3% dimethylacetamide and 20% hydroxypropyl-β-cyclodextrin. • Administration period and tumor measurement: The administration period was 13 days. The tumor volume was measured, the mice were weighed, and the data were recorded, 3 times per week. The calculation formula of tumor volume (V) is: V=½a×b2 where a and b represent length and width, respectively. The calculation formula of T/C is: T/C (%)=100×ΔT/ΔC. Tumor inhibition rate (%)=1−T/C (%). • Experimental results: The antitumor effect of the compound of Example 15 in Colon26 tumor-bearing mouse model is shown in the following table.
Under the same experimental conditions, the dosage was adjusted. The anti-tumor effect of Example 15 and its optical isomers 18-(1) and 18-(2) in Colon26 tumor-bearing mouse model is shown in the following table: […]

[4] = 25 mg/kg intragastric twice a day, D12

IC50 [1]: 27 nM | AUC(0-inf) [2]: 5180 ng·h/mL | Cmax [2]: 1350 ng/mL | Tmax [2]: 0.5 h | half-life [2]: 3.54 h
SMILES: CS(=O)(CCNc1nonc1/C(=N/O)Nc1ccc(F)c(Br)c1)=NS(=O)(=O)C1CC1 (stereo not shown) [Example 15, (Z)—N-(3-bromo-4-fluorophenyl)-4-((2-(N-(cyclopropylsulfonyl)-S-methylsulfonimidoyl)ethyl)amino)-N′-hydroxy-1,2,5-oxadiazole-3-carboximidamide]
Tumor inhibition rate (%) D12 ([3]; 10 mg/kg, D12): 71.10% | Average tumor volume (mm^3 ± SEM) D0 ([3]; 25 mg/kg intragastric twice a day, D0 (start of administration)): 95.5 ± 2.0 mm^3 | Average tumor volume (mm^3 ± SEM) D12 [3, 4]: 212.7 ± 28.9 mm^3 | T/C (%) D12 [3, 4]: 5.4% | Tumor inhibition rate (%) D12 ([3]; 25 mg/kg intragastric twice a day, D12, 25 mg/kg): 94.6%
